Measurements taken from patent US20240174702A1, “SOLID FORMS OF A COMPOUND FOR […]” (Gilead Sciences, Inc., priority 2022, published 2024).
Values belong to the compound of their own block, whether it stands above or below them.

How the values were obtained:
[1] = Stability study: loss of purity over time by liquid chromatography; type: physicochemical
Method: Formula I amorphous material and Forms I, II, III and IV were examined for loss of purity over time as determined by liquid chromatography.
The sample preparations for the stability study are described as follows: • Formula I Amorphous: A sample of amorphous solids was placed at about 22° C. open to air and the purity was monitored over 3 days by liquid chromatography. • Formula I Form I: Samples of Formula I Form I were placed in sealed glass vials and placed in a chamber at about 40° C. and about 75% RH and the purity was periodically monitored by liquid chromatography. • Formula I Form II: Samples of Formula I Form II were placed in an open vial. The vial was placed inside a container alongside a saturated salt solution to provide a humidity of about 88% RH and sealed. The sealed container was then placed into a chamber at about 40° C. and the purity was periodically monitored by liquid chromatography. • Formula I Form III: Samples of Formula I Form […] and sealed. The sealed container was then placed into a chamber at about 40° C. and the purity was periodically monitored by liquid chromatography. • Formula I Form IV: Samples of Formula I Form IV were packaged at about 0% RH inside a PE bag and heat-sealed inside a foil pouch. The pouches were then placed in a chamber at about 40° C. and the purity was periodically monitored by liquid chromatography.

[2] = Dynamic vapor sorption (DVS) hygroscopicity; type: physicochemical; details: 25° C.
Method: Hygroscopicity was studied using dynamic vapor sorption (DVS, TA Q5000 SA, TA Instruments, New Castle, DE or DVS, DVS Intrinsic, Surface Measurement Systems, London, UK). A sample (2-20 mg) was placed in an aluminum DVS pan and loaded on the sample side of the twin pan balance. The water sorption and desorption were studied as a function of relative humidity (RH) at 25° C. In 10% RH increments, the relative humidity was increased from 5% RH to 95% RH and then decreased back to 5% (some cases from 0 to 90% RH and then decrease back to 0%). […] Data analysis was performed using Universal Analysis 2000 Version 4.7A (TA Instruments, New Castle, DE) for TA DVS runs and Microsoft Excel for SMS DVS runs.

- DVS weight change ([2]; 0-90% RH): about 7.5%
- DVS weight change ([2]; 50-90% RH): about 2%
SMILES: Cn1ccc2c([C@@H](c3cn(C45CC(C4)C5)nn3)N(C(=O)OCOP(=O)(O)O)c3cc(Cl)c4ncc(C#N)c(NCC(C)(C)C)c4c3)cccc2c1=O [Formula I Glycolate]

- DVS weight change ([2]; 10-90% RH): about 4.3%
- DVS weight change ([2]; 50-90% RH): about 2.5%
SMILES: Cn1ccc2c([C@@H](c3cn(C45CC(C4)C5)nn3)N(C(=O)OCOP(=O)(O)O)c3cc(Cl)c4ncc(C#N)c(NCC(C)(C)C)c4c3)cccc2c1=O [Formula I Pyruvate Form B]

- DVS weight change ([2]; 0-90% RH): about 5.5%
- DVS weight change ([2]; 50-90% RH): about 2%
SMILES: Cn1ccc2c([C@@H](c3cn(C45CC(C4)C5)nn3)N(C(=O)OCOP(=O)(O)O)c3cc(Cl)c4ncc(C#N)c(NCC(C)(C)C)c4c3)cccc2c1=O [Formula I α-Ketobutyrate Form B]

The next lines start with the compound.

SMILES: Cn1ccc2c([C@@H](c3cn(C45CC(C4)C5)nn3)N(C(=O)OCOP(=O)(O)O)c3cc(Cl)c4ncc(C#N)c(NCC(C)(C)C)c4c3)cccc2c1=O [Formula I Amorphous]
- Formula I Purity Over Time (% purity) ([1]; About 22° C., open to atmosphere, 0 days): 95.74 % purity
- Formula I Purity Over Time (% purity) ([1]; About 22° C., open to atmosphere, 1 day): 95.45 % purity
- Formula I Purity Over Time (% purity) ([1]; About 22° C., open to atmosphere, 2 days): 95.18 % purity
- Formula I Purity Over Time (% purity) ([1]; About 22° C., open to atmosphere, 3 days): 95.05 % purity

SMILES: Cn1ccc2c([C@@H](c3cn(C45CC(C4)C5)nn3)N(C(=O)OCOP(=O)(O)O)c3cc(Cl)c4ncc(C#N)c(NCC(C)(C)C)c4c3)cccc2c1=O [Formula I Form III]
- Formula I Purity Over Time (% purity) ([1]; About 40° C., about 27% RH, 0 days): 98.61 % purity
- Formula I Purity Over Time (% purity) ([1]; About 40° C., about 27% RH, 1 day): 98.58 % purity
- Formula I Purity Over Time (% purity) ([1]; About 40° C., about 27% RH, 7 days): 98.55 % purity
- Formula I Purity Over Time (% purity) ([1]; About 40° C., about 27% RH, 14 days): 98.50 % purity

SMILES: Cn1ccc2c([C@@H](c3cn(C45CC(C4)C5)nn3)N(C(=O)OCOP(=O)(O)O)c3cc(Cl)c4ncc(C#N)c(NCC(C)(C)C)c4c3)cccc2c1=O [Formula I Form II]
- Formula I Purity Over Time (% purity) ([1]; About 40° C., about 88% RH, 0 days): 98.78 % purity
- Formula I Purity Over Time (% purity) ([1]; About 40° C., about 88% RH, 1 day): 98.67 % purity
- Formula I Purity Over Time (% purity) ([1]; About 40° C., about 88% RH, 7 days): 98.64 % purity
- Formula I Purity Over Time (% purity) ([1]; About 40° C., about 88% RH, 14 days): 98.59 % purity
- loss of purity over time ([1]; compared to Formula I Form I or Formula I amorphous material): decreased loss of purity over time

SMILES: Cn1ccc2c([C@@H](c3cn(C45CC(C4)C5)nn3)N(C(=O)OCOP(=O)(O)O)c3cc(Cl)c4ncc(C#N)c(NCC(C)(C)C)c4c3)cccc2c1=O [Formula I Form IV]
- Formula I Purity Over Time (% purity) ([1]; About 40° C., about 0% RH, 0 days): 99.49 % purity
- Formula I Purity Over Time (% purity) ([1]; About 40° C., about 0% RH, 14 days): 99.44 % purity
- Formula I Purity Over Time (% purity) ([1]; About 40° C., about 0% RH, 28 days): 99.43 % purity

SMILES: Cn1ccc2c([C@@H](c3cn(C45CC(C4)C5)nn3)N(C(=O)OCOP(=O)(O)O)c3cc(Cl)c4ncc(C#N)c(NCC(C)(C)C)c4c3)cccc2c1=O [Formula I Form I]
- Formula I Purity Over Time (% purity) ([1]; About 40° C., about 75% RH, 0 days): 99.13 % purity
- Formula I Purity Over Time (% purity) ([1]; About 40° C., about 75% RH, 7 days): 98.37 % purity
- Formula I Purity Over Time (% purity) ([1]; About 40° C., about 75% RH, 14 days): 97.97 % purity
- Formula I Purity Over Time (% purity) ([1]; About 40° C., about 75% RH, 28 days): 96.57 % purity
- DVS weight change ([2]; RH 5-95%): about 9.5 weight percent
